Results published in ChEMBL document CHEMBL5543155, “Design, Synthesis, and Biological Evaluation of β-Trifluoroethoxydimethyl Selenides as Potent Antiosteoporosis Agents” (J Med Chem, 2024).
Activity calls are given as the source filed them. The rule behind the calls is not given here.

Assays:
[1] = molecular target: T1, NF-kappa-B inhibitor alpha (Mus musculus) (UniProt Q9Z1E3); assay: Inhibition of RANKL-induced IkappaBalpha phosphorylation in C57BL/6 mouse BMMC cells at 5 uM pretreated for 6 hrs followed by RANKL stimulation and measured upto 60 mins by Western blot analysis; assay type: cell-based; details: time <= 7.0 hrs
T1 sequence (whole entry): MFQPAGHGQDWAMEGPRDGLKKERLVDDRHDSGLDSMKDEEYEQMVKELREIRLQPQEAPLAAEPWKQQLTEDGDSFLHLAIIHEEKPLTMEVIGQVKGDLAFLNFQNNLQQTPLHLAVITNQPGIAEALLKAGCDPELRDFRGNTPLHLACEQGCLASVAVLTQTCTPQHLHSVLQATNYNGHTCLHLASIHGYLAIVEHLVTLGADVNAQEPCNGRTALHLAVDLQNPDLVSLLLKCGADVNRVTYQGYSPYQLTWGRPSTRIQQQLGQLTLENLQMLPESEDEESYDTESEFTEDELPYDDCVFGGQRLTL

BMMC [2] = assay: Effect on total p38 protein expression in RANKL-induced C57BL/6 mouse BMMC cells at 5 uM pretreated for 6 hrs followed by RANKL stimulation and measured upto 60 mins by Western blot analysis; assay type: functional, cell-based; details: time <= 7.0 hrs
Mus musculus [3] = assay: Anti-osteoporosis activity in ovariectomized C57BL/6 mouse assessed as reduction in bone loss by measuring increase in trabecular number at 10 mg/kg, ip administered every other day for 8 weeks by micro-CT analysis; assay type: functional, organism-based
BMMC [4] = assay: Anti-osteoclastogenesis activity in M-CSF/RANKL-induced C57BL/6 mouse BMMC cells assessed as reduction in size of TRAP-positive osteoclasts at 0 to 10 uM incubated for 6 days with media replacement for every 2 days by TRAP-staining based light microscopic analysis; assay type: functional, cell-based; details: dose 0-10 µM, time 6.0 day
[5] = molecular target: T1, NF-kappa-B inhibitor alpha (Mus musculus); assay: Inhibition of RANKL-induced IkappaBalpha degradation in C57BL/6 mouse BMMC cells at 5 uM pretreated for 6 hrs followed by RANKL stimulation and measured upto 60 mins by Western blot analysis; assay type: cell-based; details: time <= 7.0 hrs
BMMC [6] = assay: Effect on total JNK protein expression in RANKL-induced C57BL/6 mouse BMMC cells at 5 uM pretreated for 6 hrs followed by RANKL stimulation and measured upto 60 mins by Western blot analysis; assay type: functional, cell-based; details: time <= 7.0 hrs
BMMC [7] = assay: Anti-osteoclastogenesis activity in M-CSF/RANKL-induced C57BL/6 mouse BMMC cells assessed as reduction in F-actin ring formation incubated for 7 days with media replacement for every other day by TRITC phalloidin/DAPI-staining based fluorescence microscopic analysis; assay type: functional, cell-based; details: dose 0-10 µM, time 7.0 day
BMMC [8] = assay: Anti-osteoclastogenesis activity in M-CSF/RANKL-induced C57BL/6 mouse BMMC cells assessed as downregulation of TRAP gene expression incubated for 5 days by qRT-PCR analysis; assay type: functional, cell-based; details: dose 0-10 µM, time 5.0 day
[9] = Toxicity in OVX osteoporotic C57BL/6 mouse assessed as effect on size and surface gloss of liver at 10 mg/kg, ip administered every other day for 8 weeks by H and E staining based analysis; assay type: organism-based; details: in vivo, 1344 h
[10] = Toxicity in OVX osteoporotic C57BL/6 mouse assessed as effect on size and surface gloss of heart at 10 mg/kg, ip administered every other day for 8 weeks by H and E staining based analysis; assay type: organism-based; details: in vivo, 1344 h
MC3T3-E1 [11] = assay: Induction of osteoblast differentiation in mouse MC3T3-E1 cells assessed as bone formation by measuring increase in BMP2 protein expression measured after 7 days by Western blot analysis; assay type: functional, cell-based; details: dose 2.5-10 µM, time 7.0 day
[12] = Toxicity in OVX osteoporotic C57BL/6 mouse assessed as effect on size and surface gloss of kidney at 10 mg/kg, ip administered every other day for 8 weeks by H and E staining based analysis; assay type: organism-based; details: in vivo, 1344 h
RAW264.7 = assay: Inhibition of RANKL-induced osteoclast differentiation in mouse RAW264.7 cells at 5 uM incubated for 4 days with media replacement for every 2 days by TRAP-staining based light microscopic analysis; assay type: functional, cell-based; details: time 4.0 day
BMMC [13] = assay: Anti-osteoclastogenesis activity in M-CSF/RANKL-induced C57BL/6 mouse BMMC cells assessed as inhibition of osteoclasts formation incubated for 6 days with media replacement for every 2 days by TRAP-staining based light microscopic analysis; assay type: functional, cell-based
MC3T3-E1 [14] = assay: Induction of osteoblast differentiation in mouse MC3T3-E1 cells assessed as bone formation by measuring increase in Runx2 protein expression measured after 7 days by Western blot analysis; assay type: functional, cell-based; details: dose 2.5-10 µM, time 7.0 day
BMMC [15] = assay: Effect on total p65 protein expression in RANKL-induced C57BL/6 mouse BMMC cells at 5 uM pretreated for 6 hrs followed by RANKL stimulation and measured upto 60 mins by Western blot analysis; assay type: functional, cell-based; details: time <= 7.0 hrs
Mus musculus [16] = assay: Anti-osteoporosis activity in ovariectomized C57BL/6 mouse assessed as reduction in bone loss by measuring increase in trabecular thickness at 10 mg/kg, ip administered every other day for 8 weeks by micro-CT analysis; assay type: functional, organism-based
[17] = Toxicity in OVX osteoporotic C57BL/6 mouse assessed as effect on size and surface gloss of spleen at 10 mg/kg, ip administered every other day for 8 weeks by H and E staining based analysis; assay type: organism-based; details: in vivo, 1344 h
BMMC [18] = assay: Anti-osteoclastogenesis activity in M-CSF/RANKL-induced C57BL/6 mouse BMMC cells cultured in hydroxyapatite-coated plates assessed as reduction in bone resorbed area per osteoclast incubated for 4 days by microscopic analysis; assay type: functional, cell-based; details: dose 2.5-10 µM, time 4.0 day
BMMC [19] = assay: Anti-osteoclastogenesis activity in M-CSF/RANKL-induced C57BL/6 mouse BMMC cells assessed as downregulation of MMP-9 gene expression incubated for 5 days by qRT-PCR analysis; assay type: functional, cell-based; details: dose 0-10 µM, time 5.0 day
MC3T3-E1 [20] = assay: Induction of osteoblast differentiation in mouse MC3T3-E1 cells assessed as increase in ALP activity measured after 7 days by ALP staining based inverted microscopic analysis; assay type: functional, cell-based; details: dose 2.5-10 µM, time 7.0 day
BMMC [21] = assay: Anti-osteoclastogenesis activity in M-CSF/RANKL-induced C57BL/6 mouse BMMC cells assessed as reduction in number of TRAP-positive osteoclasts at 0 to 10 uM incubated for 6 days with media replacement for every 2 days by TRAP-staining based light microscopic analysis; assay type: functional, cell-based; details: dose 0-10 µM, time 6.0 day
MC3T3-E1 [22] = assay: Induction of osteoblast differentiation in mouse MC3T3-E1 cells assessed as bone formation by measuring increase in Smad protein expression measured after 7 days by Western blot analysis; assay type: functional, cell-based; details: dose 2.5-10 µM, time 7.0 day
Mus musculus [23] = assay: Anti-osteoporosis activity in ovariectomized C57BL/6 mouse assessed as reduction in bone loss by measuring decrease in trabecular spacing at 10 mg/kg, ip administered every other day for 8 weeks by micro-CT analysis; assay type: functional, organism-based
BMMC [24] = assay: Anti-osteoclastogenesis activity in M-CSF/RANKL-induced C57BL/6 mouse BMMC cells assessed as downregulation of C-Fos gene expression incubated for 5 days by qRT-PCR analysis; assay type: functional, cell-based; details: dose 0-10 µM, time 5.0 day
Mus musculus [25] = assay: Anti-osteoporosis activity in ovariectomized C57BL/6 mouse assessed as reduction in bone loss by measuring decrease in TRAP-positive cells around trabecula at 10 mg/kg, ip administered every other day for 8 weeks by TRAP staining based analysis; assay type: functional, organism-based

SMILES: CC(C)(OCC(F)(F)F)C([Se]c1ccccc1)C(=O)Nc1ccncc1 (configuration not stated)
- inhibition [1]: Active
- Activity (BMMC [2]): inactive
- Activity (Mus musculus [3]): Active
- Activity (BMMC [4]): Active
- inhibition [5]: Active
- Activity (BMMC [6]): inactive
- Activity (BMMC [7]): Dose-Dependent Effect
- Activity (BMMC [8]): Dose-Dependent Effect
- Activity [9]: Non-Toxic
- Activity [10]: Non-Toxic
- Activity (MC3T3-E1 [11]): Dose-Dependent Effect
- Activity [12]: Non-Toxic
- inhibition (RAW264.7): Active
- IC50 (BMMC [13]; C57BL/6, BMMC): 2410 nM
- Activity (BMMC [13]; dose 0-10 µM, time 6.0 day): Dose-Dependent Effect
- Activity (MC3T3-E1 [14]): Dose-Dependent Effect
- Activity (BMMC [15]): inactive
- Activity (Mus musculus [16]): Active
- Activity [17]: Non-Toxic
- Activity (BMMC [18]): Dose-Dependent Effect
- Activity (BMMC [19]): Dose-Dependent Effect
- Activity (MC3T3-E1 [20]): Dose-Dependent Effect
- Activity (BMMC [21]): Active
- Activity (MC3T3-E1 [22]): Dose-Dependent Effect
- Activity (Mus musculus [23]): Active
- Activity (BMMC [24]): Dose-Dependent Effect
- Activity (Mus musculus [25]): Active
